Assay results: ChEMBL document CHEMBL1157002, “SAR of a series of inhaled A(2A) agonists and comparison of inhaled pharmacokinetics in a preclinical model with clinical pharmacokinetic data” (Bioorg Med Chem Lett, 2009)
One block for each molecule: values may come before it. Active and inactive are the calls of the source. The calls are words filed in the database; no cut-off is given here.

Legend:
[1] = molecular target: Adenosine receptor A2a (Homo sapiens, UniProt P29274)
Description: Agonist activity at adenosine A2A receptor in fMLP-stimulated human neutrophils assessed as inhibition of superoxide production by colorimetric analysis

[2] = tested on: Rattus norvegicus; experiment: Unbound clearance in rat at 1 mg/kg, iv; format: ADME, organism-based; design: dose 1 mg/kg, route intravenous; conditions: in vivo
[3] = Lipophilicity, log D at pH 7.4; format: physicochemical; conditions: buffer
[4] = tested on: Rattus norvegicus; experiment: Dose normalized fCmax in rat (dose normalized to 1 mg/kg); format: ADME, organism-based; design: dose 1 mg/kg; conditions: in vivo
[5] = tested on: Cavia porcellus; experiment: Inhibition of capsaicin-induced bronchoconstriction in it dosed guinea pig up to 5 hrs; format: functional, organism-based
[6] = tested on: Cavia porcellus; experiment: Toxicity in it dosed guinea pig assessed as decrease of diastolic blood pressure; format: organism-based, Artery; conditions: in vivo, inhaled_or_intranasal
[7] = Intrinsic clearance in human liver microsomes; format: ADME, Microsome
[8] = tested on: Homo sapiens; experiment: Dose normalized fCmax in human at 100 ug administered by aerosol device measured up to 4 hrs (dose normalized to 1 mg/kg); format: ADME, organism-based; design: dose 1 mg/kg; conditions: in vivo
[9] = tested on: Homo sapiens; experiment: Dose normalized fCmax in human at 200 ug administered by aerosol device measured up to 4 hrs (dose normalized to 1 mg/kg); format: ADME, organism-based; design: dose 1 mg/kg; conditions: in vivo
[10] = tested on: Homo sapiens; experiment: Dose normalized fCmax in human at 400 ug administered by aerosol device measured up to 4 hrs (dose normalized to 1 mg/kg); format: ADME, organism-based; design: dose 1 mg/kg; conditions: in vivo
[11] = tested on: Homo sapiens; experiment: Dose normalized fCmax in human at 800 ug administered by aerosol device measured up to 4 hrs (dose normalized to 1 mg/kg); format: ADME, organism-based; design: dose 1 mg/kg; conditions: in vivo
[12] = tested on: Homo sapiens; experiment: Dose normalized fCmax in human at 1600 ug administered by aerosol device measured up to 4 hrs (dose normalized to 1 mg/kg); format: ADME, organism-based; design: dose 1 mg/kg; conditions: in vivo
[13] = Half life in human at 100 to 1600 ug administered by aerosol device; format: ADME, organism-based; conditions: in vivo, inhaled or intranasal
[14] = tested on: Homo sapiens; experiment: Toxicity in human assessed as increase of sitting blood pressure at 200 to 1600 ug administered by aerosol device; format: organism-based; conditions: in vivo, inhaled_or_intranasal
[15] = species on record: Cavia porcellus; experiment: Inhibition of capsaicin-induced bronchoconstriction in guinea pig at 10 ug up to 8 hrs; format: functional, organism-based

Adenosine receptor A2a, sequence (P29274 whole entry): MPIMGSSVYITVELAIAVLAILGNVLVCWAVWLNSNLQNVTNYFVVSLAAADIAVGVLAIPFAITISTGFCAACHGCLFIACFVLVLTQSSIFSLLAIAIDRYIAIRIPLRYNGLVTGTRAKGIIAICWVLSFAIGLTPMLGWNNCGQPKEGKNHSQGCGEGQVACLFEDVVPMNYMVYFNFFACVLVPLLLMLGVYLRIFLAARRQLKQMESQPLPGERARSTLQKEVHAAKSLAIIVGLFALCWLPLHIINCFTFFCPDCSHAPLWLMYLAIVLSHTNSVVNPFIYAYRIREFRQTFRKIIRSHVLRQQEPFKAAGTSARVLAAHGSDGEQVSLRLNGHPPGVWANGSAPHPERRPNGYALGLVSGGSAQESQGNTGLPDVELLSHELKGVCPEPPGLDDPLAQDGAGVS

SMILES: CCNC(=O)[C@H]1O[C@@H](n2cnc3c(NCC(c4ccccc4)c4ccccc4)nc(C(=O)NCCNC(=O)NCCN(C(C)C)C4CCCC4)nc32)[C@H](O)[C@@H]1O
IC50 [1]: 7 nM

SMILES: CCNC(=O)[C@H]1O[C@@H](n2cnc3c(NCC(c4ccccc4)c4ccccc4)nc(CNC(=O)NCCN(C(C)C)C4CCCC4)nc32)[C@H](O)[C@@H]1O
CL free [2]: 210 L/h/kg | logD [3]: 2 | Cmax_unbound [4]: 1.8 nM

SMILES: CCNC(=O)[C@H]1O[C@@H](n2cnc3c(NCC(c4ccccc4)c4ccccc4)nc(CNC(=O)NCCN4CCCCC4)nc32)[C@H](O)[C@@H]1O
Activity [5]: Active | Activity [6]: Non-toxic

SMILES: O=C(NCCNC(=O)c1nc(NCC(c2ccccc2)c2ccccc2)c2ncn([C@@H]3O[C@H](CO)[C@@H](O)[C@H]3O)c2n1)NCCN1CCCCC1
IC50 [1]: 45 nM

SMILES: CCNC(=O)[C@H]1O[C@@H](n2cnc3c(NCC(c4ccccc4)c4ccccc4)nc(C(=O)NCCNC(=O)NC4CCN(c5ccccn5)CC4)nc32)[C@H](O)[C@@H]1O [UK432097]
microsomal CLint [7]: > 255 µL/min/mg | CL free [2]: 330 L/h/kg | Cmax_unbound [4]: 0.2 nM | Cmax_unbound [8]: 0.45 nM | Cmax_unbound [9]: 0.3 nM | Cmax_unbound [10]: 0.19 nM | Cmax_unbound [11]: 0.19 nM | Cmax_unbound [12]: 0.12 nM | half-life [13]: 3 h | Activity [14]: Toxic | Activity [15]: Active

SMILES: CCNC(=O)[C@H]1O[C@@H](n2cnc3c(NCC(c4ccccc4)c4ccccc4)nc(C(=O)NCCN(C)C(=O)NCCN4CCCCC4)nc32)[C@H](O)[C@@H]1O
IC50 [1]: 305 nM

Next, values leading:

IC50 [1]: 4 nM
SMILES: CCNC(=O)[C@H]1O[C@@H](n2cnc3c(NCC(c4ccccc4)c4ccccc4)nc(C(=O)NCCNC(=O)NCc4ccccn4)nc32)[C@H](O)[C@@H]1O

IC50 [1]: 10 nM
SMILES: CCNC(=O)[C@H]1O[C@@H](n2cnc3c(NCC(c4ccccc4)c4ccccc4)nc(C(=O)NCCNC(=O)NCCN4CCc5ccccc5C4)nc32)[C@H](O)[C@@H]1O

microsomal CLint [7]: 81 µL/min/mg | CL free [2]: 45 L/h/kg | logD [3]: 0.9 | Cmax_unbound [4]: 12.3 nM | IC50 [1]: 5 nM
SMILES: CCNC(=O)[C@H]1O[C@@H](n2cnc3c(NCC(c4ccccc4)c4ccccc4)nc(C(=O)NCCNC(=O)NCCN(C(C)C)C(C)C)nc32)[C@H](O)[C@@H]1O

IC50 [1]: 6 nM
SMILES: CCNC(=O)[C@H]1O[C@@H](n2cnc3c(NCC(c4ccccc4)c4ccccc4)nc(C(=O)NCCNC(=O)NCc4ccccc4)nc32)[C@H](O)[C@@H]1O

IC50 [1]: 5 nM
SMILES: CCNC(=O)[C@H]1O[C@@H](n2cnc3c(NCC(c4ccccc4)c4ccccc4)nc(C(=O)NCCNC(=O)NCc4ccc(CN(CC)CC)cc4)nc32)[C@H](O)[C@@H]1O

IC50 [1]: 5 nM
SMILES: CCNC(=O)[C@H]1O[C@@H](n2cnc3c(NCC(c4ccccc4)c4ccccc4)nc(C(=O)NCCNC(=O)NCCN4CCCCC4)nc32)[C@H](O)[C@@H]1O

IC50 [1]: 10 nM
SMILES: CCNC(=O)[C@H]1O[C@@H](n2cnc3c(NCC(c4ccccc4)c4ccccc4)nc(C(=O)NCCNC(=O)NCCc4ccccc4)nc32)[C@H](O)[C@@H]1O

IC50 [1]: 0.4 nM
SMILES: CCNC(=O)[C@H]1O[C@@H](n2cnc3c(NCC(c4ccccc4)c4ccccc4)nc(C(=O)NCCNC(=O)NCc4ccc(C(=O)O)cc4)nc32)[C@H](O)[C@@H]1O
